The numbers were not newly measured in US11857510B2, “Methods and compositions for treating congenital diarrhea disorder” (NAPO PHARMACEUTICALS, INC., priority 2017, dated 2024), which cites them from elsewhere.

The conditions of this series: human, in vivo.

As for Crofelemer, the “absorption from the GI tract” value is listed as “little or no absorption”, the systemic bioavailability result is reported as “virtually no systemic bioavailability” and the tolerability result is on record as “well tolerated”.
